These results are taken from patent publication US20040023974A1, “Cyclic sulfamide derivatives and methods of use” (priority 2002, published 2004).

Structures are written as SMILES. Where a name gives a salt, the structure may show the parent alone.

Broadly, the melting point is the temperature of the solid-liquid transition. Take `COc1ccc(N2CC(=O)NS2(=O)=O)c(OC)c1.[K]`: the melting point is > 260 °C.
Then `CCn1c(C)nc2cc(CN3CC(=O)NS3(=O)=O)ccc21` (as salt: TFA) [Example 11, 5-(1-Ethyl-2-methyl-1H-benzoimidazol-5-ylmethyl)-1,1-dioxo-1-1,2,5-thiadiazolidin-3-one], with 255 to 265 °C.
Then `O=C1CN(Cc2cccc(I)c2)S(=O)(=O)N1` [Example 4, 5-(3-Iodobenzyl)-1,1-dioxo-1,2,5-thiadiazolidin-3-one], with 101 to 103 °C; and `CCOC(=O)C(Cc1ccc(CN2CC(=O)NS2(=O)=O)cc1)(NC(C)=O)C(=O)OCC` [Example 10-23, 2-Acetylamino-2-[4-(1,1,4-trioxo-1,2,5-thiadiazolidin-2-ylmethyl)-benzyl]-malonic acid diethyl ester], with 197 °C.
Then `Cc1nc2cc(CN3CC(=O)NS3(=O)=O)ccc2n1CCC(C)C` [Example 12, 5-[2-Methyl-1-(3-methyl-butyl)-1H-benzoimidazol-5-ylmethyl]-1,1-dioxo-1-1,2,5-thiadiazolidin-3-one], with 70 to 75 °C.
As to `Cc1cc(OCC(=O)NCc2ccccc2)ccc1N1CC(=O)NS1(=O)=O` [Example 43, N-Benzyl-2-[3-methyl-4-(1,1,4-trioxo-[1,2,5]thiadiazolidin-2-yl)-phenoxy]-acetamide], the melting point lay in the range of 70 to 90 °C.
Then `O=C1CN(c2ccc(CC3NC(=O)c4ccccc4NC3=O)cc2O)S(=O)(=O)N1` (centres unmarked) [Example 44, 3-[3-Hydroxy-4-(1,1,4-trioxo-[1,2,5]thiadiazolidin-2-yl)-benzyl]-3,4-dihydro-1H-benzo[1,4]diazepine-2,5-dione], with 180 °C; and `O=C1CN(c2ccc(I)cc2)S(=O)(=O)N1` [Example 45, 5-(4-Iodo-phenyl)-1,1-dioxo-1,2,5-thiadiazolidin-3-one], with 191 to 193 °C.
